Data as given in US20090317452A1, “Transdermal patch” (Sekisui Chemical Co. td., priority 2006, published 2009).

Columns and labels:
[1] = Solvency of the active substance in monomers (visual inspection); assay type: physicochemical; set-up: key: Excellent: The active substance was not found to have been precipitated in the solution of active substance both immediately after the preparation and after the preservation for 7 days.; Good: The active substance was found to have been precipitated in the solution of active substance immediately after the preparation, but the active substance was not found to have been precipitated in the solution of active substance after the preservation for 7 days.; Poor: The active substance was found to have been precipitated in the solution of active substance both immediately after the preparation and after the preservation for 7 days; conditions: 25° C., 7 days
[2] = Residual rate of the active substance in monomer solution (HPLC); assay type: physicochemical; conditions: for Residual Rate (% by weight) after 7 Days: 25° C.
[3] = 3 parts active substance in 100 parts 1-Vinyl-2-Pyrrolidone
[4] = 3 parts active substance in 100 parts 2-Ethylhexyl Acrylate
[5] = 3 parts active substance in 100 parts 2-Ethylhexyl Methacrylate
[6] = 3 parts active substance in 100 parts Acrylic Acid
[7] = 3 parts active substance in 100 parts Butyl Acrylate
[8] = 3 parts active substance in 100 parts Butyl Methacrylate
[9] = 3 parts active substance in 100 parts Dodecyl Methacrylate
[10] = 3 parts active substance in 100 parts Ethyl Acrylate
[11] = in Butyl Acrylate, N.D. = equal to or less than the HPLC detection limit
[12] = in Ethyl Acrylate, N.D. = equal to or less than the HPLC detection limit

| SMILES | Solvency of the active substance [1, 3] | Solvency of the active substance [1, 4] | Solvency of the active substance [1, 5] | Solvency of the active substance [1, 6] | Solvency of the active substance [1, 7] | Solvency of the active substance [1, 8] | Solvency of the active substance [1, 9] | Solvency of the active substance [1, 10] | Residual Rate (% by weight) Immediately after Preparation ([2]; in 1-Vinyl-2-Pyrrolidone) | Residual Rate (% by weight) after 7 Days ([2]; in 1-Vinyl-2-Pyrrolidone) | Residual Rate (% by weight) Immediately after Preparation ([2]; in 2-Ethylhexyl Acrylate) | Residual Rate (% by weight) after 7 Days ([2]; in 2-Ethylhexyl Acrylate) | Residual Rate (% by weight) Immediately after Preparation ([2]; in 2-Ethylhexyl Methacrylate) | Residual Rate (% by weight) after 7 Days ([2]; in 2-Ethylhexyl Methacrylate) | Residual Rate (% by weight) Immediately after Preparation ([2]; in Acrylic Acid) | Residual Rate (% by weight) after 7 Days ([2]; in Acrylic Acid) | Residual Rate (% by weight) Immediately after Preparation ([2]; in Butyl Acrylate) | Residual Rate (% by weight) after 7 Days [2, 11] | Residual Rate (% by weight) Immediately after Preparation ([2]; in Butyl Methacrylate) | Residual Rate (% by weight) after 7 Days ([2]; in Butyl Methacrylate) | also measured |
| --- | --- | --- | --- | --- | --- | --- | --- | --- | --- | --- | --- | --- | --- | --- | --- | --- | --- | --- | --- | --- | --- |
| COc1ccc2c(c1)c(CC(=O)O)c(C)n2C(=O)c1ccc(Cl)cc1 [IMT, indomethacin] | Excellent | Poor | Poor | Excellent | Poor | Poor | Poor | Poor | 100 % by weight | 100 % by weight | 100 % by weight | 100 % by weight | 100 % by weight | 100 % by weight | 100 % by weight | 100 % by weight | 100 % by weight | 100 % by weight | 100 % by weight | 99 % by weight | Residual Rate (% by weight) Immediately after Preparation ([2]; in Dodecyl Methacrylate): 100 % by weight; Residual Rate (% by weight) after 7 Days ([2]; in Dodecyl Methacrylate): 100 % by weight; Residual Rate (% by weight) after 7 Days ([2]; in Ethyl Acrylate): 99 % by weight; Residual Rate (% by weight) Immediately after Preparation [2, 12]: 100 % by weight |
| CC(C)(C)NCC(O)c1ccccc1Cl (stereo not drawn) [TB, tulobuterol] | Excellent | Excellent | Excellent | Excellent | Excellent | Excellent | Good | Excellent | 100 % by weight | 100 % by weight | 100 % by weight | 88 % by weight | 100 % by weight | 100 % by weight | 100 % by weight | 96 % by weight | 100 % by weight | 81 % by weight | 100 % by weight | 100 % by weight | Residual Rate (% by weight) Immediately after Preparation ([2]; in Dodecyl Methacrylate): 100 % by weight; Residual Rate (% by weight) after 7 Days ([2]; in Dodecyl Methacrylate): 100 % by weight; Residual Rate (% by weight) after 7 Days ([2]; in Ethyl Acrylate): 70 % by weight; Residual Rate (% by weight) Immediately after Preparation [2, 12]: 100 % by weight |
| O=[N+]([O-])O[C@H]1CO[C@H]2[C@@H]1OC[C@H]2O[N+](=O)[O-] [ISDN, isosorbide dinitrate] | Excellent | Excellent | Excellent | Excellent | Excellent | Excellent | Excellent | Excellent | 100 % by weight | 100 % by weight | 100 % by weight | 100 % by weight | 100 % by weight | 99 % by weight | 100 % by weight | 100 % by weight | 100 % by weight | 100 % by weight | 100 % by weight | 100 % by weight | Residual Rate (% by weight) Immediately after Preparation ([2]; in Dodecyl Methacrylate): 100 % by weight; Residual Rate (% by weight) after 7 Days ([2]; in Dodecyl Methacrylate): 100 % by weight; Residual Rate (% by weight) after 7 Days ([2]; in Ethyl Acrylate): 100 % by weight; Residual Rate (% by weight) Immediately after Preparation [2, 12]: 100 % by weight |
